# Values quoted from earlier work, collected in patent US20200197494A1, “PEPTIDE COMPOSITIONS AND METHODS OF USE” (Dauntless Pharmaceuticals, priority 2017, published 2020).
# Conditions: subcutaneous administration; background statement
structure (smiles),measurement,value
"C[C@@H](O)[C@@H]1NC(=O)[C@H](CCCCN)NC(=O)[C@@H](Cc2c[nH]c3ccccc23)NC(=O)[C@H](Cc2ccccc2)NC(=O)[C@@H](NC(=O)[C@H](N)Cc2ccccc2)CSSC[C@@H](C(=O)N[C@H](CO)[C@@H](C)O)NC1=O [octreotide, D-phenylalanyl-L-cysteinyl-L-phenylalanyl-D-tryptophyl-L-lysyl-L-threonyl-N-[2-hydroxy-1-(hydroxymethyl)propyl]-L-Cysteinamide, cyclic (2→7)-disulfide]",peptide present in the blood stream (bioavailability),~100%
